We go through seven molecules from patent US4226878A, “Imidazole derivative” (Kissei Pharmaceutical Co., Ltd., priority 1978, dated 1980).

Where a name gives a salt, the structure may show the parent alone.

In one assay the target is T1, thromboxane synthetase from rabbit platelet microsomes (Oryctolagus cuniculus, UniProt G1TAZ9).
T1 construct: thromboxane synthetase from rabbit platelet microsomes; from tissue; host or cells: rabbit platelet microsomes
T1 sequence (G1TAZ9 1-530): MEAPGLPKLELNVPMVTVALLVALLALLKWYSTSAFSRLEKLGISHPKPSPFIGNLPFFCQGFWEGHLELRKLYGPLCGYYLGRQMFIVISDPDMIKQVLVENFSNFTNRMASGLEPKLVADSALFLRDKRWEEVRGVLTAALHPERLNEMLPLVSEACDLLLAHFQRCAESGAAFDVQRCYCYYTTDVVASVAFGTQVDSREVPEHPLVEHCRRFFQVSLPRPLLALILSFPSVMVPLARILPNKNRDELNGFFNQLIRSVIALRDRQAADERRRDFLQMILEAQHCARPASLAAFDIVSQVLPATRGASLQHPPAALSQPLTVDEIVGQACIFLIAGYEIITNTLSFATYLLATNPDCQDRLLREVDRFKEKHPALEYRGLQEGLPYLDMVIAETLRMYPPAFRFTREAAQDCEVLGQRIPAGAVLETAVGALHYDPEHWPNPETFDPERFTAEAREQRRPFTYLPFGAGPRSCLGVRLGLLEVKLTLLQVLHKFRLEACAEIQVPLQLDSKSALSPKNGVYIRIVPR
As to the kind of experiment: inhibition of thromboxane synthetase from rabbit platelet microsomes (conversion of prostaglandin H2 into thromboxane B2). In kind it is biochemical. Conditions: read-out: molar concentration producing a 50% inhibition of thromboxane synthetase. The source says:
[Nature, Vol. 261, No. 6, 17-, (1976)].
The inhibitory action of the imidazole derivatives of this invention can be confirmed by determination of thromboxane B2 produced by thromboxane synthetase from prostaglandin H2 via thromboxane A2.
In the case of `CC(=Cc1ccc(Cn2ccnc2)cc1)C(=O)O` [P-(1-imidazolylmethyl)-α-methylcinnamic acid hydrochloric acid salt], the IC50 is 4 nM.

The test system of the next assay is thromboxane synthetase.
Assay: not given
Conditions: literature reports; cited from earlier work.
Take `COC(=O)CCCCCCn1ccnc1` [1-(6-methoxycarbonylhexyl) imidazole]: the “inhibitory effect on thromboxane synthetase (in words, prior art)” value (shortened to “inhibitory effect … (in words, prior art)”) was “inhibitory effect”.
On to `c1ccc(Cn2ccnc2)cc1` [1-benzylimidazole], for which the “inhibitory effect … (in words, prior art)” value is reported as “strong inhibitory effect”.
For the molecule `CCCCCCCCCn1ccnc1` [1-nonylimidazole], the “inhibitory effect … (in words, prior art)” value is recorded as “strong inhibitory effect”.
Consider `CC(C)c1ccccc1-n1ccnc1` [1-(2-isopropylphenyl)imidazole], for which the “inhibitory effect … (in words, prior art)” value is “strong inhibitory effect”.
For the molecule `CCCCCCCCCCn1ccnc1` [1-decylimidazole], the “inhibitory effect … (in words, prior art)” value is “strong inhibitory effect”.
Take `c1c[nH]cn1` [imidazole]: the “inhibitory effect … (in words, prior art)” value is given as “very weak inhibitory effect”.
